According to ChEMBL document CHEMBL1201862, “PubChem BioAssay data set” (2004):
Active and inactive are the calls of the source.

What was measured:
NADPH oxidase 1 = molecular target: T1, NADPH oxidase 1 (Homo sapiens, UniProt Q9Y5S8); test: Late-stage luminescence-based cell-based dose response assay to identify inhibitors of NADPH oxidase 1 (NOX1): Purchased analogs 2.; format: functional
T1 sequence (Q9Y5S8 whole entry): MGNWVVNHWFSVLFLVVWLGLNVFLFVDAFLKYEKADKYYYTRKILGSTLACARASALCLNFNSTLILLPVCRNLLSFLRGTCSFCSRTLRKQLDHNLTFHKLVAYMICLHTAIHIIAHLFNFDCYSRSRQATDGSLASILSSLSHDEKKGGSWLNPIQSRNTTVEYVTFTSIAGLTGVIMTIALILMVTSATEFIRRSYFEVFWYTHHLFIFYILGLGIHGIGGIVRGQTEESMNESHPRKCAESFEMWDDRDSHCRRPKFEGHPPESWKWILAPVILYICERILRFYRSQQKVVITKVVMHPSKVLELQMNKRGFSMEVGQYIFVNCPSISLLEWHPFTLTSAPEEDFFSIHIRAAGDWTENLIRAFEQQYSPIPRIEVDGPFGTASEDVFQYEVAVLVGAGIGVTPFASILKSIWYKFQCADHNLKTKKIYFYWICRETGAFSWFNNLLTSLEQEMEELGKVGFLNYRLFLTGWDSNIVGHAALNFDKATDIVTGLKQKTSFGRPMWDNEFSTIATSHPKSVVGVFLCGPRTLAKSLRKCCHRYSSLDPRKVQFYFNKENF

[1] = NIH-3T3 fibroblast cytotoxicity, dose response, cytotoxicity control, cell-based, fluorescence, Alamar Blue, secondary assay (AID 2327); format: functional;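 note: NIH-3T3 mouse fibroblasts cultured with fluconazole at 8 µg/mL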
[2] = system: Streptococcus sp. 'group A'; test: growth inhibition of control SK(-) GAS strain, dose response, counter-screen for streptokinase expression inhibitor project, luminescence, kanamycin, BacTiterGlo, confirmation (AID 1900); format: functional, organism-based
[3] = C. albicans growth with fluconazole, confirmation, fluorescence, retest (AID 2467); format: functional, cell-based
[4] = molecular target: Potassium voltage-gated channel subfamily KQT member 2 (Rattus norvegicus, UniProt O88943, W236L); test: KCNQ2 channel potentiators, dose response, mechanism study for KCNQ2 potentiator project, cell-based, automated electrophysiology (AID 2603); format: functional
Streptococcus = test: Group A Streptococcus viability loss, dose response, counter-screen for streptokinase expression inhibitor project, luminescence, BacTiterGlo (AID 1915); format: functional, organism-based;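 note: potency for reduction of bacterial viability or growth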
[5] = Luminescence Cell-Based Dose Confirmation HTS to Identify Activators of 5'UTR Stem-Loop Driven Alpha-Synuclein mRNA Translation in H4 Neuroglioblastoma Cells. [Related pubchem assays: 1829 (Project Summary), 1814 (Primary HTS)]; format: functional
[6] = Luminescence Cell-Based Dose Response HTS to Identify Activators of Luciferase Translation or Activity in H4 […] Cells. [Related pubchem assays: 1829 (Project Summary), 1814 (Primary HTS)]; format: functional
H4 = test: Luminescence Cell-Based Dose Response HTS to Identify Activators of 5'UTR Stem-Loop Driven Prion Protein mRNA Translation in H4 Neuroglioblastoma Cells. [Related pubchem assays: 1829 (Project Summary), 1814 (Primary HTS)]; format: functional; settings: Homo sapiens
[7] = molecular target: Voltage-gated inwardly rectifying potassium channel KCNH2 (Homo sapiens, UniProt Q12809); test: hERG protection from proarrhythmic block, potency, dose response, cell-based, thallium flux (AID 2121); format: ADME
[8] = molecular target: T2, RNA-binding protein pos-1 (Caenorhabditis elegans, UniProt G5EF15); test: inhibitors of POS-1/mex-3 RNA binding, dose response, biochemical, fluorescence polarization (AID 1964);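 note: purified POS-1 fused to maltose binding protein made in E. coli; potency of compounds blocking POS-1 binding to fluorescent RNA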
T2 sequence (G5EF15 whole entry): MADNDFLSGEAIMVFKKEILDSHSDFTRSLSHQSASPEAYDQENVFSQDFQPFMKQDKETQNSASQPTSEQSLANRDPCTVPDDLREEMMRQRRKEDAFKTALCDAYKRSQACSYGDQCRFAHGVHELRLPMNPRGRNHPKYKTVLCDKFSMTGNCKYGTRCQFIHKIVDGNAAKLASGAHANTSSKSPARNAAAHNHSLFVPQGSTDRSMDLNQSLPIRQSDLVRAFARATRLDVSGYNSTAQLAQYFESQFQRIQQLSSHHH

[9] = molecular target: T3, Zinc finger protein mex-5 (Caenorhabditis elegans, UniProt Q9XUB2); test: MEX-5/TCR-2 RNA interaction inhibitors, dose response, biochemical, C. elegans, fluorescence polarization (AID 1960)
T3 sequence (Q9XUB2 whole entry): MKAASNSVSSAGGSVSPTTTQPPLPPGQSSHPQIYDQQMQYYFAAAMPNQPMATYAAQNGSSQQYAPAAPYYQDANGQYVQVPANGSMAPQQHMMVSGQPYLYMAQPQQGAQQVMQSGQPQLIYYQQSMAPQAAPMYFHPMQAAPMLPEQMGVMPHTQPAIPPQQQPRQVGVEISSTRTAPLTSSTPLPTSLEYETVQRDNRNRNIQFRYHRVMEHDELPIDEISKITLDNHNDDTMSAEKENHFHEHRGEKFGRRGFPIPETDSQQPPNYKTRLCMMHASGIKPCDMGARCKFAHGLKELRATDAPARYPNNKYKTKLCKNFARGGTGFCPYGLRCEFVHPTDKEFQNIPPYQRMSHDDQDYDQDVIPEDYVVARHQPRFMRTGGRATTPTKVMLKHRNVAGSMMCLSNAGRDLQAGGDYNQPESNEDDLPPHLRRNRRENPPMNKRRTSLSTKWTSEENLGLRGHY

[10] = Escherichia coli growth inhibition, dose response, counter-screen for MEX-5/POS-1 RNA-binding inhibitor project, luminescence, NEB5alpha (AID 1959); format: functional
[11] = molecular target: 5-hydroxytryptamine receptor 1A (Homo sapiens, UniProt P08908); format: functional
Galanin receptor type 2 = Galanin receptor type 2 (Homo sapiens, UniProt O43603); test: Dose Response cell-based high-throughput screening assay to identify agonists of galanin receptor 2 (GALR2). [Related pubchem assays: 864 ]; format: functional
Nonstructural protein 1 = Nonstructural protein 1 (Influenza A virus, UniProt Q194T2); format: functional, Influenza A virus (A/California/07/2009(H1N1))
INS1 = test: beta cell apoptosis inhibitors, cytokine rescue, dose response, luminescence, retest (AID 449756); format: functional, cell-based; settings: Rattus norvegicus;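 note: cell death triggered by IL-1 beta plus TNF-alpha plus IFN-gamma mixture; protective hits raise ATP signal compared with cytokine alone wells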
[12] = HepG2 cell cytotoxicity, dose response, cytotoxicity control, ATP luminescence, cherry-pick, set 6 (AID 1053125); format: functional, cell-based
[13] = human group III sPLA2 inhibitors, dose response, biochemical, QFRET, IC50 (AID 743457);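 note: green fluorescence rise as the enzyme cleaves BODIPY PC-A2 in liposomes; potency for inhibition of the enzyme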
cells [14] = settings: A549
cells [15] = settings: HEK293
[16] = HEp-2 cell cytotoxicity, dose response, cytotoxicity control for RSV inhibitor project, HTS (AID 2410); format: functional; settings: human respiratory syncytial virus
[17] = M. tuberculosis H37Rv growth inhibitors, H37Rv strain (AID 1626); format: functional
[18] = molecular target: Sphingosine 1-phosphate receptor 2 (Homo sapiens, UniProt O95136); test: Dose Response Cell Based Assay for Agonists of the S1P2 Receptor of Purchased Analogues. [Related pubchem assays: 729, 843, 854, 736 ]; format: functional
Sequence of Sphingosine 1-phosphate receptor 2 (O95136 whole entry): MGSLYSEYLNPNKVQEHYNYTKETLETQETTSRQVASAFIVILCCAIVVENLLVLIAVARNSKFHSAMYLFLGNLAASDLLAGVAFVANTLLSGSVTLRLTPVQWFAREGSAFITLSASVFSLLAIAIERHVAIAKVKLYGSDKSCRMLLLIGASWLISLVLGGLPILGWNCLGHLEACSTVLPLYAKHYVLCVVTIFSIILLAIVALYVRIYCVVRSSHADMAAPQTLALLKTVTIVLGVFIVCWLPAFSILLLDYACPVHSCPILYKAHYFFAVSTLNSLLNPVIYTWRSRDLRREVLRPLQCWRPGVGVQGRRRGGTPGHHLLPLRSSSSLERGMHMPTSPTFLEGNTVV

Sequence of Galanin receptor type 2 (O43603 whole entry): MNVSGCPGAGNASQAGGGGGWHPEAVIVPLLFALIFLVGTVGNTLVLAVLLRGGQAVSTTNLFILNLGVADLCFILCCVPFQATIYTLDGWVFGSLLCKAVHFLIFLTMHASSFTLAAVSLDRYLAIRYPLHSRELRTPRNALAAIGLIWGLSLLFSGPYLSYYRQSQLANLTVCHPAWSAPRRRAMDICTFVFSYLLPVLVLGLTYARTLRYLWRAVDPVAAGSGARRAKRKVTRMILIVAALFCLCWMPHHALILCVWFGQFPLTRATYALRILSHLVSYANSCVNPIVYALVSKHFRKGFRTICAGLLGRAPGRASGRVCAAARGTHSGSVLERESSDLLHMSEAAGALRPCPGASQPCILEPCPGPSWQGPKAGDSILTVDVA
Sequence of 5-hydroxytryptamine receptor 1A (P08908 whole entry): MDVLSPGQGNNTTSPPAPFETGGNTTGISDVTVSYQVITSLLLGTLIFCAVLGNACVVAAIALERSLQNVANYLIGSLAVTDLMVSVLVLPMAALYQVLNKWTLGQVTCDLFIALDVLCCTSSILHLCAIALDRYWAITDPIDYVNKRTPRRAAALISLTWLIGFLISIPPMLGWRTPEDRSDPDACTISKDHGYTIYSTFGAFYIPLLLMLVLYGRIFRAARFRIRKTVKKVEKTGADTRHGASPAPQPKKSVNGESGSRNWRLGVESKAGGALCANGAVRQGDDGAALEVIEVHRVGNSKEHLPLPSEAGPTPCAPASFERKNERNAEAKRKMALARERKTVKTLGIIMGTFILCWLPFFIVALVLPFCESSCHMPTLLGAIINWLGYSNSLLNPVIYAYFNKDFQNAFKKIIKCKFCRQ
Sequence of Nonstructural protein 1 (Q194T2 whole entry): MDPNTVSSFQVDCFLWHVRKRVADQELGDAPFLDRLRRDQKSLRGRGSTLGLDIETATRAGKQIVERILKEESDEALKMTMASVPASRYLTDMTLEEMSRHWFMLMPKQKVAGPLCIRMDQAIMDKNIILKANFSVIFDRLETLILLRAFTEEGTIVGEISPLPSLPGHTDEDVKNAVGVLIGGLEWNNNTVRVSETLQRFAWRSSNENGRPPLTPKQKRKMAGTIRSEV
Sequence of Voltage-gated inwardly rectifying potassium channel KCNH2 (Q12809 whole entry, the tested form may be a part): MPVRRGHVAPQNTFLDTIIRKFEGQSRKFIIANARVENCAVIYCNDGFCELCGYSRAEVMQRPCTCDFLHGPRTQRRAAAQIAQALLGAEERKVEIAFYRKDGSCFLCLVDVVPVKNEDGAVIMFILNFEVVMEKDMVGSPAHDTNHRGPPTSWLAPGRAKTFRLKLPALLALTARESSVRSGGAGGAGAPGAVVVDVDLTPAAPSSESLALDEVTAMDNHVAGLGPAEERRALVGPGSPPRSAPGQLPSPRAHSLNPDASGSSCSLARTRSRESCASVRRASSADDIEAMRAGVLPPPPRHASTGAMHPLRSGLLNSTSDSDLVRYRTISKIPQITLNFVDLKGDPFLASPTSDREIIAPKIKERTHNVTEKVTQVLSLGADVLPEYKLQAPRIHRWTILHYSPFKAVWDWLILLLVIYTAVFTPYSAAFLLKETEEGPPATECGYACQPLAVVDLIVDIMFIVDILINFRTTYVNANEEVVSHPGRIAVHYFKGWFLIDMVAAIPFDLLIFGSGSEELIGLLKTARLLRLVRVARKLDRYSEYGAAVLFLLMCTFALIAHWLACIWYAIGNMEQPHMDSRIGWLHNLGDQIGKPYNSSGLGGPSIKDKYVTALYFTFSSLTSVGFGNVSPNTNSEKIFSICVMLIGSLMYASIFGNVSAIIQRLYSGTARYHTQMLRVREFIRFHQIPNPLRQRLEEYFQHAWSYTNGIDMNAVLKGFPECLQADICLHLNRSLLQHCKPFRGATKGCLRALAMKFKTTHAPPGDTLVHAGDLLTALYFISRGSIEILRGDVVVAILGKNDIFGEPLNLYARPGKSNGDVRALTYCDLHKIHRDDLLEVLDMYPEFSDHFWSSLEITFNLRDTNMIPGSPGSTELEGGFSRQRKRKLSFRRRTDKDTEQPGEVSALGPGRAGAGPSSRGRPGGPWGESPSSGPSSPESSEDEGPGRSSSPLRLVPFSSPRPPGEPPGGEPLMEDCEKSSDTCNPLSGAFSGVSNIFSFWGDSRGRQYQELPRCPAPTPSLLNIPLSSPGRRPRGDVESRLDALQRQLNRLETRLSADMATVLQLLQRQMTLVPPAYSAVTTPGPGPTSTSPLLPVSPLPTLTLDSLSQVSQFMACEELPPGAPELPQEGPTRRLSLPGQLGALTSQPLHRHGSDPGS
Sequence of Potassium voltage-gated channel subfamily KQT member 2 (O88943 whole entry W236L): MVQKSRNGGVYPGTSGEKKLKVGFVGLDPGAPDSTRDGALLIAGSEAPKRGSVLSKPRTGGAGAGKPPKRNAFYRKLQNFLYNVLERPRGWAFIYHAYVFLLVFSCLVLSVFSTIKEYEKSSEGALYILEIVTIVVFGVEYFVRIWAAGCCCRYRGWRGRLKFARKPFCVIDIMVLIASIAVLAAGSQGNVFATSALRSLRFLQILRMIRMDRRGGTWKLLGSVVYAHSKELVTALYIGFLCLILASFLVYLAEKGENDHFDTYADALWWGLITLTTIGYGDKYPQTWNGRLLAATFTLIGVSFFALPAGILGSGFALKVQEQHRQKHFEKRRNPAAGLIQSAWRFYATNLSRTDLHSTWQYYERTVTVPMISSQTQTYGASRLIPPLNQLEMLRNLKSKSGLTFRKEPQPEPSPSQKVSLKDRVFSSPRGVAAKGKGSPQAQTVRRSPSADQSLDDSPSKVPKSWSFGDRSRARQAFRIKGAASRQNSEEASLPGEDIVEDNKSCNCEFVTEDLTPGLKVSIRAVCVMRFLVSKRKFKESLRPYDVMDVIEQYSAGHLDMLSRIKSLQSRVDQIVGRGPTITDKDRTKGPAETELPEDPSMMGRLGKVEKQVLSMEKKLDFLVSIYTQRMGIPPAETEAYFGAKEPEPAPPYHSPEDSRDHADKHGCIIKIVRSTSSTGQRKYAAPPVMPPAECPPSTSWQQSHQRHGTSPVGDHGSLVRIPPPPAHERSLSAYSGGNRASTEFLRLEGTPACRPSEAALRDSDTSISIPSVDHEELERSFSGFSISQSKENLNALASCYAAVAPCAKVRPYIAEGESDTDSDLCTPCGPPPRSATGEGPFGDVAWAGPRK

Question: For `O=C(Nc1ccc(Oc2ccc(Cl)cc2)cc1)Nc1ccc([N+](=O)[O-])cc1`, which IC50 (NADPH oxidase 1) is on record?
Answer: > 17 µM (not active)

Question: Which results are given for `O=C(Cc1ccccc1)N/N=C/c1cc(Br)cc(Cl)c1O`?
Answer: EC50 [1]: > 150 µM (inactive); EC50 [2]: 1.05 µM (active); EC50 [3]: 4.68 µM (active); EC50 [4]: 7.13 µM (active); EC50 (Streptococcus): 1.73 µM (active)

Question: Which EC50 [5] does the source give for `CCOC(=O)c1sc(NC(=S)NC(=O)c2ccccc2)nc1C` here?
Answer: 17.6 µM (active)

Question: And the EC50 [6]?
Answer: 7.98 µM (active)

Question: And the EC50 (H4)?
Answer: 25 µM (active)

Question: What about the EC50 [7] of the same compound?
Answer: 3.68 µM (active)

Question: For `O=c1c2ccccc2nc(N/N=C/c2ccc(O)cc2)n1O`, which EC50 [8] is on record?
Answer: > 300 µM (not active)

Question: And the EC50 [9]?
Answer: > 300 µM (inconclusive)

Question: And the EC50 [10]?
Answer: 14.3 µM (active)

Question: With `c1ccc(N2CCN(Cc3cn4cccnc4n3)CC2)cc1` as the compound, how does the EC50 [11] read?
Answer: > 50 µM (not active)

Question: Which results are given for `Cc1cccc2sc(NNC(=O)c3ccc(S(=O)(=O)N4CCCC(C)C4)cc3)nc12` (stereo unspecified)?
Answer: EC50 [2]: 0.493 µM (active); EC50 (Galanin receptor type 2): > 55.7 µM (not active); EC50 (Streptococcus): 8.56 µM (active); IC50 (Nonstructural protein 1): > 100 µM (active); AC50 (INS1): 1.12 µM (active); AC50 [12]: 4.56 µM (active); IC50 [13]: 21.3 µM (inactive); AC50 (cells [14]): 8.96 µM (active); AC50 (cells [15]): 4.7 µM (active)

Question: Which CC50 [16] does the source give for `Cc1cc(-c2ccc(/C=N/n3cnnc3)o2)ccc1Cl` here?
Answer: > 50 µM (active)

Question: What about the IC50 [17] of the same compound?
Answer: > 100 µM (active)

Question: With `Cc1cc(C(=O)Cn2cc(C(F)(F)F)ccc2=O)c(C)n1Cc1ccccc1` as the compound, how does the EC50 [18] read?
Answer: 0.723 µM (active)
